Literature values as cited in EP0836475B1, “CONTROLLED RELEASE FORMULATIONS FOR POORLY SOLUBLE DRUGS” (ELAN CORPORATION, Plc, priority 1995, dated 1997).

Details: ibuprofen from Lutrol-F68

T50 value of in vitro release: approximately 30 min.
SMILES: CC(C)Cc1ccc(C(C)C(=O)O)cc1 (stereo not shown) [ibuprofen]
